From a melting point compilation (Tetko et al.; mined from patent text by program, amines drawn as free bases though some values may be those of a salt)

Structure (SMILES)	melting point
CN(C)c1cccc(/C=C/c2c(F)cccc2F)c1	69 to 71 °C
COc1ccc2[nH]c(C)c(-c3nc(OC)cc(OC)n3)c2c1	182 to 184 °C
C[C@H](CNC(=O)c1c(Cl)ccc2nc(N3CCC(C(=O)O)CC3)ccc12)c1ccccc1	150 to 153 °C
O=Cc1c(O)ccc2cccnc12	127 to 130 °C
Cc1ccc(S(=O)(=O)N2[C@@H](CCC(=N)NO)CC[C@H]2c2ccc(F)cc2)cc1 (racemic)	134 °C
CC(C)(C)c1nc2cc(N3CCOCC3)c(N)cc2s1	158 to 159 °C
N#Cc1cccc(NC(=O)NC2N=C(CN3CCOCC3)c3ccccc3NC2=O)c1 (configuration not stated)	249 to 250 °C
O=C(Oc1ccccc1)N1c2ncccc2OCC1OP(=O)(Oc1ccccc1)Oc1ccccc1 (configuration not stated)	82 °C
CN(C)c1ncc(-c2cccc(-n3cnc4cc(-c5ccoc5)ccc43)c2)cn1	183 to 184 °C
CC(C)(Oc1ccc(CC(=O)Nc2ccc(Cl)cc2)cc1)C(=O)O	163 °C
C=CCOc1cc(-n2c(OC)nc(C(F)(F)C(F)(F)F)cc2=O)c(F)cc1Cl	82 to 83 °C
O=S1(=O)c2ccccc2-c2nc3ccccc3c(Cl)c21	266 to 269 °C
CC(C)CN=C1C(c2ccccc2)=C(c2ccccc2)C(c2ccccc2)=C1c1ccccc1	158 °C
CCCc1nc(-n2c(C)ccc2C)c(C(=O)OC)[nH]1	175 to 176 °C
COc1nsc(SCOCC#CI)c1C#N	124 to 125 °C
CCOC(=O)c1cc2cccc(NS(=O)(=O)c3ccccc3OC)c2n1COC	106 to 107 °C
COc1cccc(S(=O)(=O)N2CCCC2=O)c1	108 to 109 °C
CN(C(=O)OC[C@@]1(C)Cn2cc([N+](=O)[O-])nc2O1)c1ccc(OC(F)(F)F)cc1	144 to 145 °C
CC(C)c1ccnc(NC(=S)NCCC2=CCCCC2)c1	105 to 106 °C
O=C(O)CCC(Oc1cccc(OCc2ccccc2)c1)c1ccccc1 (racemic)	100 to 104 °C
Cc1cc(Oc2cccc(C#N)n2)n(C)n1	95 °C
CCc1cccc(C)c1CNc1cc(Cl)nc2c1nc(C)n2C	157 to 159 °C
COc1ccc(-c2nn(Cc3ccccc3)c(=O)cc2-c2ccc(OC)c(F)c2)cc1	110 to 112 °C
CCCc1c(OCc2ccc(CSC#N)cc2)ccc(C(C)=O)c1O	110 to 111 °C
Nc1ccc(SCc2csc(N)n2)cc1	130 to 132 °C
CCOC(=O)c1cc(O)cc2cc(-c3ccc(O)cc3)oc12	221 to 223 °C

Structure (SMILES)	melting point
CCOC(=O)COc1c(F)cc(S(=O)(=O)CCNS(=O)(=O)c2ccc(Cl)cc2)cc1F	166 to 167 °C
CCCCCCCNC(=O)Nc1ccccc1C(=O)NC1CCCN(C(c2ccccc2)c2ccccc2)C1 (configuration not stated)	112 °C
CCOC(=O)c1cccc2c1N=C(c1ccccc1Cl)CC2=O	152 to 153 °C
O=C(COc1ccc(OCc2ccccc2)cc1)NCCCn1ccnc1	112 to 113 °C
ClC1=Nc2ccccc2Oc2cscc21	215 to 217 °C
O=C(Oc1ccc(F)cc1)N1CCN2C(=O)OC(c3ccccc3)(c3ccccc3)C2C1 (configuration not stated)	188 to 189 °C
CCOC(=O)C(=CNc1ccnn1Cc1ccco1)C(=O)OCC	84 to 86 °C
COC(=O)c1nscc1S(=O)(=O)Cl	42 to 46 °C
CCCCCCS(=O)(=O)c1c(Br)cc(N)cc1Br	192 to 194 °C
COc1ccc(N2CN(C)CNC2=S)cc1	194 °C
CS(=O)(=O)c1ccc(-n2cncc2-c2ccc(Cl)nc2)cc1	191 to 192 °C
CN1CCN(Cc2ccc(N)cc2C(F)(F)F)CC1	119 to 121 °C
O=Cc1c(Cl)ccc(Br)c1F	92 to 93 °C
OC[C@@H]1Cc2ccccc2CN1C(=S)Nc1cccnc1	192 °C
Nc1nccc(CCc2ccc3c(C(=O)Nc4cccc(C(F)(F)F)c4)cccc3c2)n1	225 to 227 °C
CC1(C)CNc2cc3[nH]c(-c4cccnc4)nc3cc21	213 to 215 °C
COc1ccc(CSC2CNC(=O)C2)cc1 (configuration not stated)	95 to 96 °C
CCN(CC)C(=O)COc1ccccc1C(O)(CC)c1cccc(Cl)c1 (configuration not stated)	93 to 94 °C
COc1ccc(Cl)cc1NC(=O)NCc1ccc2c(c1)CN(C1CCC(=O)NC1=O)C2=O (configuration not stated)	283 to 285 °C
CCOC(=O)c1cc(Cc2cccc3ccccc23)sc1NCC(C)C	57 to 59 °C
CCc1nc2c(Cl)ncnc2n1Cc1ccc(OC)cc1	101 to 103 °C
COc1cc(OC)c2c(=O)cc(-c3n[nH]c4ccccc34)oc2c1	253 to 255 °C
CC(c1ccccc1N1CCCCC1)C(C(N)=O)c1ccc(C(=O)OCc2ccccc2)cc1 (configuration not stated)	126 to 128 °C
COc1ccc([N+](=O)[O-])c(C2OCCO2)c1OC	74 to 76 °C
CCN1C(=O)Cc2cccc(OC(=O)CCl)c21	105 to 110 °C
O=C(NCC1CC(=O)N(Cc2ccccc2)C1)Nc1ccc(Cl)cc1 (configuration not stated)	139 to 140 °C

Structure (SMILES)	melting point
FC(F)(F)c1nnnn1-c1ccc(C2=NOC(c3cc(Cl)cc(Cl)c3)(C(F)(F)F)C2)cc1 (configuration not stated)	147 to 151 °C
CCOC(=O)NCCCC1OCC(c2cccc3ccccc23)CO1 (configuration not stated)	93 to 94 °C
CS(=O)(=O)Nc1ccc2c(c1)CC(=O)N2CCN1CCN(Cc2ccccc2)CC1	196 to 198 °C
O=C1c2ccccc2-c2c1cccc2-c1nc2ccncc2[nH]1	236 to 238 °C
O=C(N[C@H](Cc1ccccc1)C(=O)O)OCc1cc2cc(-c3ccccc3)ccc2[nH]1	168 to 174 °C
Cc1cnc2c(N)ccc(C)c2c1Cl	120 to 122 °C
O=C1Nc2cccc(-c3cccc(NC(=O)c4ccc([N+](=O)[O-])cc4)c3)c2/C1=C/c1ccc[nH]1	157 to 159 °C
CCOC(Nc1ccccc1)(OCC)C1(Cl)C=C(C)N=C(C(=O)c2ccc(Cl)cc2)C1 (configuration not stated)	134 to 135 °C
CC(=O)OC1COC(N=[N+]=[N-])C(OC(C)=O)C1OC(C)=O (configuration not stated)	76 °C
COC(=O)c1ccc(C(=O)N2CCN(c3ncccc3NC(C)C)CC2)cc1	116 to 118 °C
CC(C)OC(=O)c1cc(-n2c(=O)[nH]c3c(c2=O)CCC3)c(F)cc1F	231 to 234 °C
CC(=O)CC(C)c1ccc(-c2ccccc2)c(F)c1 (configuration not stated)	85 °C
CCOC(=O)c1oc(Oc2ccccc2)nc1C(F)(F)F	75 to 77 °C
COCc1ccoc1-c1cc(-n2c(N)nc3ccccc32)ccc1C	174 to 176 °C
CCOC(=O)C1=Cc2cc(-c3ccc(Cl)cc3)ccc2OCC1	131 to 134 °C
Cc1cc(C#N)cc(C(=O)Nc2cccc(Cl)c2)n1	148 °C
Cc1cc(C2=NN(C)C(=O)C2)c(Cl)cc1Cl	196 to 198 °C
C=CCOc1cccc(-c2cn3ccc4ccccc4c3n2)c1	83 to 85 °C
Nc1cc(CO)cc(Nc2c3ccccc3nc3occc23)c1	236 to 237 °C
O=C(N[C@H]1CC[C@H](CCN2CCC(c3cccc4c3CCO4)CC2)CC1)c1ccc2c(c1)OCO2	233 °C
CN1CCC(c2c[nH]c3ccc(NC(=O)c4ccc5ccccc5c4)cc23)CC1	153 to 156 °C
CCCCCCCCCCCCCCCCCC(=O)NCC(COCCCCCCCCCCCCCCCC)COCc1ccccc1 (configuration not stated)	56 to 57 °C
O=C(Cn1c(-c2cc([N+](=O)[O-])cc([N+](=O)[O-])c2)ncc(NC(=O)OCc2ccccc2)c1=O)NC(Cc1ccccc1)C(=O)C(F)(F)F (configuration not stated)	154 to 157 °C
Nc1sc2c(c1C(=O)c1ccc(Br)cc1)CCN(C(=O)Nc1ccccc1)C2	89 to 90 °C
N#CN=C(NCCO)NCc1ccc(-c2csc(N=C(N)N)n2)o1	208 to 209 °C
CCC1CCC2(O)C3CC=C4CC(O)CCC4(C)C3CC(O)C12C (configuration not stated)	228 to 235 °C

Structure (SMILES)	melting point
COc1ccc(CCN2CCC(C(O)(c3cc4ccccc4s3)c3cc4ccccc4s3)CC2)cc1	168 to 179 °C
N#Cc1ccc(C=C(C(=O)C2CC2)C(=O)C2CC2)cc1	100 to 102 °C
Cc1oc(-c2ccc(F)cc2)cc1C(C)O (configuration not stated)	50 to 52 °C
O=C(O)c1ccc2c(c1F)OC(c1ccccc1)(c1ccccc1)O2	189 to 191 °C
N#CC(C(=O)Nc1ccccc1)C(=O)c1nn(-c2ccccc2)c2c1COc1ccc(Cl)cc1-2 (configuration not stated)	243 to 246 °C
CC(C)C(=O)c1ccc(OCc2ccc(CNC(=O)c3cn(C)cn3)cc2)c(C(F)(F)F)c1O	165 °C
CNC(=O)c1cc2c(Oc3ccc(Br)cc3)cncc2s1	78 to 80 °C
COCCCCCC(=NO)c1ccc(Cl)c(Cl)c1	53 to 54.5 °C
NS(=O)(=O)c1cccc(-c2cn(-c3nc(-c4ccc(Cl)c(Cl)c4)cc(C(F)(F)F)n3)cn2)c1	239 °C
CCOC(=O)c1nc(NC(C)=O)sc1Cc1cccc(SC)c1	188 °C
O=C(O)c1ccc(C(=O)Nc2cc3c4c(c2)CCCC4CCC3)cc1	283 to 284 °C
COc1ccc2c(c1)C13CCN(C)C(C2)C1(OC(C)=O)CCOC3 (configuration not stated)	161 to 163 °C
OCC1Cc2c([nH]c3ccccc23)CN1 (configuration not stated)	191 to 193 °C
C=C(C(=O)NC1CCCCC1)c1ccccc1	131 to 133 °C
CCN(CC)CCNC(=O)c1cc(I)cc2c(Cl)ccnc12	76 to 78 °C
Cn1c(Cc2ccc(Cl)c(Oc3cc(C#N)cc(C#N)c3)c2F)nn(COC(=O)CCC(=O)O)c1=O	142 to 143 °C
COc1ccc(C)c2c1C(C=O)C1CCCCC21 (configuration not stated)	92 to 93 °C
CC(Cc1cccc(O)c1)NCCC(c1ccccc1)c1ccccc1 (configuration not stated)	122 to 124 °C
COc1c(Br)cccc1[N+](=O)[O-]	55 to 56 °C
CCCCC(C#N)c1cccc(C(=O)c2cc3cc(C(=O)OC)sc3s2)c1 (configuration not stated)	131 °C
O=C(O)C1CCCc2c(noc2-c2ccc(Cl)cc2)C1 (configuration not stated)	231 to 233 °C
O=C(OCc1ccccc1)N1CCN(C(=O)C(Cc2ccc(O)cc2)NS(=O)(=O)c2cccc3cnccc23)CC1 (configuration not stated)	137 to 141 °C
CCSc1nc(NC(C)=O)ccc1F	110 to 114 °C
CCOC1CC(n2cc(CC)c(=O)[nH]c2=O)OC1CN (configuration not stated)	122 to 123 °C
